Results taken from ChEMBL document CHEMBL5625174, “Are inhibitors of histone deacetylase 8 (HDAC8) effective in hematological cancers especially acute myeloid leukemia (AML) and acute lymphoblastic leukemia (ALL)?” (Eur J Med Chem, 2023).

What was measured:
Jurkat E6.1 = assay: Cytotoxicity against human Jurkat E6.1 cells assessed as reduction in cell viability; assay type: functional, cell-based
U-937 = assay: Cytotoxicity against human U-937 cells assessed as reduction in cell viability; assay type: functional, cell-based
MOLT-4 = assay: Cytotoxicity against human MOLT-4 cells assessed as reduction in cell viability; assay type: functional, cell-based
Histone deacetylase = assay: Inhibition of HDAC (unknown origin) using Fluoro-Substrate Peptide as substrate by fluorescence assay; assay type: protein assay, Homo sapiens
Histone deacetylase 8 = biological target: T1, Histone deacetylase 8 (Homo sapiens, UniProt Q9BY41); assay: Inhibition of HDAC8 (unknown origin) by fluorescence based assay
T1 sequence (Q9BY41 whole entry): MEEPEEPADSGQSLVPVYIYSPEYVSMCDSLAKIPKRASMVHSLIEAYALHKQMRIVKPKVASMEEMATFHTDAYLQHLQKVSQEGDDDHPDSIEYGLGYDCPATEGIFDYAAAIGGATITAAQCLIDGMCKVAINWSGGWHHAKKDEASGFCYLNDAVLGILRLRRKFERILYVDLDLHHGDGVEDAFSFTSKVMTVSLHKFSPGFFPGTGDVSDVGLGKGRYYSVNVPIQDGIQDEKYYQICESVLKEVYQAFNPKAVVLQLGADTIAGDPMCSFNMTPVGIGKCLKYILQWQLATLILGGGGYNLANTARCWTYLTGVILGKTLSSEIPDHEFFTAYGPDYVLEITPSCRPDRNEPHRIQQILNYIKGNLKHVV

Row | IC50 (Histone deacetylase) [µM] | IC50 (Histone deacetylase 8) [µM] | SMILES | IC50 (Jurkat E6.1) [µM] | IC50 (U-937) [µM] | IC50 (MOLT-4) [µM]
1 |  |  | COc1ccc(CC(=O)N[C@@H](CCC(=O)O)C(=O)NCc2ccccc2)cc1 | ≤ 35 | > 35 | ≤ 35
2 |  |  | COc1ccc(CC(=O)N[C@@H](CCC(=O)O)C(=O)NCC(C)C)cc1 | > 35 | > 35 | > 35
3 |  |  | O=C(O)CC[C@H](NC(=O)Cc1ccccc1F)C(=O)Nc1ccccc1 | < 35 | > 35 | < 35
4 |  |  | CC(C)(C)NC(=O)[C@H](CCC(=O)O)NC(=O)Cc1ccccc1 | ≤ 35 | ≤ 35 | ≤ 35
5 |  |  | CCCCCCNC(=O)[C@H](CCC(=O)O)NC(=O)Cc1ccccc1F | < 35 | > 35 | < 35
6 |  |  | CCCNC(=O)[C@H](CCC(=O)O)NC(=O)Cc1ccc(Cl)cc1 | ≤ 35 | > 35 | > 35
7 | > 10 | ≤ 10 | O=C(O)CC[C@H](NC(=O)Cc1ccc(Br)cc1)C(=O)NCc1ccccc1 | ≤ 35 | > 35 | ≤ 35
8 |  |  | Cc1ccccc1CC(=O)N[C@@H](CCC(=O)O)C(=O)Nc1ccccc1 | > 35 | > 35 | > 35
9 | > 10 | ≤ 10 | O=C(O)CC[C@H](NC(=O)Cc1ccc(-c2ccccc2)cc1)C(=O)NCc1ccccc1 | < 35 | < 35 | < 35
10 |  |  | CCCCNC(=O)[C@H](CCC(=O)O)NC(=O)Cc1ccccc1F | < 35 | > 35 | > 35
11 |  |  | CCCCCNC(=O)[C@H](CCC(=O)O)NC(=O)Cc1ccccc1Cl | ≤ 35 | > 35 | > 35
12 |  |  | O=C(O)CC[C@H](NC(=O)Cc1ccc(-c2ccccc2)cc1)C(=O)NC1CCCCC1 | < 35 | > 35 | < 35
13 |  |  | CCCCNC(=O)[C@H](CCC(=O)O)NC(=O)Cc1ccc(Br)cc1 | ≤ 35 | > 35 | ≤ 35
14 |  |  | CC(C)CNC(=O)[C@H](CCC(=O)O)NC(=O)Cc1ccc(Br)cc1 | > 35 | > 35 | > 35
15 |  |  | CCCNC(=O)[C@H](CCC(=O)O)NC(=O)Cc1ccccc1F | > 35 | > 35 | > 35
16 |  |  | CCCNC(=O)[C@H](CCC(=O)O)NC(=O)Cc1ccccc1 | ≤ 35 | > 35 | ≤ 35
17 |  |  | O=C(O)CC[C@H](NC(=O)Cc1ccccc1)C(=O)Nc1ccccc1 | ≤ 35 | ≤ 35 | ≤ 35
18 |  |  | CCCCCCNC(=O)[C@H](CCC(=O)O)NC(=O)Cc1ccccc1Br | < 35 | < 35 | < 35
19 | > 10 | ≤ 10 | O=C(O)CC[C@H](NC(=O)Cc1ccc(Cl)cc1Cl)C(=O)NCc1ccccc1 | ≤ 35 | ≤ 35 | ≤ 35
20 |  |  | CC(C)NC(=O)[C@H](CCC(=O)O)NC(=O)Cc1ccccc1Br | > 35 | > 35 | > 35
21 | > 10 | ≤ 10 | CCCCCCNC(=O)[C@H](CCC(=O)O)NC(=O)Cc1ccc(Cl)cc1Cl | ≤ 35 | ≤ 35 | ≤ 35

Row | IC50 (Histone deacetylase) [µM] | IC50 (Histone deacetylase 8) [µM] | SMILES | IC50 (Jurkat E6.1) [µM] | IC50 (U-937) [µM] | IC50 (MOLT-4) [µM]
22 | > 10 | ≤ 10 | COc1ccc(CNC(=O)[C@H](CCC(=O)O)NC(=O)Cc2ccc(Br)cc2)cc1 | < 35 | > 35 | < 35
23 | > 10 | ≤ 10 | CCCCCCNC(=O)[C@H](CCC(=O)O)NC(=O)Cc1ccc(Br)cc1 | ≤ 35 | > 35 | ≤ 35
24 | > 10 | ≤ 10 | O=C(O)CC[C@H](NC(=O)Cc1ccc(Br)cc1)C(=O)NCc1ccccc1Cl | > 35 | > 35 | < 35
25 |  |  | CCCCCCNC(=O)[C@H](CCC(=O)O)NC(=O)Cc1ccccc1Cl | > 35 | > 35 | > 35
26 | > 10 | > 10 | CCCCCCNC(=O)[C@H](CCC(=O)O)NC(=O)Cc1ccc(-c2ccccc2)cc1 |  |  | 
27 |  |  | CC(C)CNC(=O)[C@H](CCC(=O)O)NC(=O)Cc1ccccc1 | > 35 | > 35 | > 35
28 |  |  | O=C(O)CC[C@H](NC(=O)Cc1ccccc1Br)C(=O)Nc1ccccc1 | > 35 | > 35 | < 35
29 |  |  | CCCCCNC(=O)[C@H](CCC(=O)O)NC(=O)Cc1ccc([N+](=O)[O-])cc1 | < 35 | > 35 | < 35
30 |  |  | CC(C)(C)NC(=O)[C@H](CCC(=O)O)NC(=O)Cc1ccc(Cl)cc1 | < 35 | > 35 | < 35
31 |  |  | CCCNC(=O)[C@H](CCC(=O)O)NC(=O)Cc1ccc(Br)cc1 | ≤ 35 | > 35 | ≤ 35
32 |  |  | O=C(O)CC[C@H](NC(=O)Cc1ccc(Cl)cc1)C(=O)NC1CCCCC1 | < 35 | > 35 | < 35
33 |  |  | CC(C)(C)NC(=O)[C@H](CCC(=O)O)NC(=O)Cc1ccc([N+](=O)[O-])cc1 | > 35 | > 35 | < 35
34 |  |  | CC(C)NC(=O)[C@H](CCC(=O)O)NC(=O)Cc1ccc(Cl)cc1 | ≤ 35 | ≤ 35 | ≤ 35
35 |  |  | CC(C)CNC(=O)[C@H](CCC(=O)O)NC(=O)Cc1ccccc1F | ≤ 35 | > 35 | ≤ 35
36 | > 10 | ≤ 10 | O=C(O)CC[C@H](NC(=O)Cc1ccc(Cl)cc1)C(=O)NCc1ccccc1 |  |  | 
37 |  |  | CCCCNC(=O)[C@H](CCC(=O)O)NC(=O)Cc1ccccc1 | > 35 | > 35 | ≤ 35
38 |  |  | O=C(O)CC[C@H](NC(=O)Cc1ccccc1Cl)C(=O)NCc1ccccc1 | ≤ 35 | > 35 | ≤ 35
39 |  |  | O=C(O)CC[C@H](NC(=O)Cc1ccc(Br)cc1)C(=O)NC1CCCCC1 | ≤ 35 | > 35 | ≤ 35
40 |  |  | CCCCCNC(=O)[C@H](CCC(=O)O)NC(=O)Cc1ccc(Cl)cc1Cl | < 35 | < 35 | < 35
41 |  |  | CCCCCNC(=O)[C@H](CCC(=O)O)NC(=O)Cc1ccccc1 | ≤ 35 | > 35 | ≤ 35
42 | > 10 | ≤ 10 | O=C(O)CC[C@H](NC(=O)Cc1ccc(Br)cc1)C(=O)NCc1ccc(Cl)cc1 | < 35 | > 35 | < 35

Row | IC50 (Histone deacetylase) [µM] | IC50 (Histone deacetylase 8) [µM] | SMILES | IC50 (Jurkat E6.1) [µM] | IC50 (U-937) [µM] | IC50 (MOLT-4) [µM]
43 |  |  | CC(C)NC(=O)[C@H](CCC(=O)O)NC(=O)Cc1ccccc1F | > 35 | > 35 | > 35
44 |  |  | CC(C)CNC(=O)[C@H](CCC(=O)O)NC(=O)Cc1ccccc1Br | < 35 | > 35 | < 35
45 |  |  | CC(C)CNC(=O)[C@H](CCC(=O)O)NC(=O)Cc1ccccc1Cl | ≤ 35 | > 35 | ≤ 35
46 |  |  | CCCCNC(=O)[C@H](CCC(=O)O)NC(=O)Cc1ccc(Cl)cc1Cl | < 35 | > 35 | < 35
47 |  |  | CCCCCCNC(=O)[C@H](CCC(=O)O)NC(=O)Cc1ccc2ccccc2c1 | ≤ 35 | > 35 | ≤ 35
48 |  |  | O=C(O)CC[C@H](NC(=O)Cc1ccccc1)C(=O)NC1CCCCC1 | ≤ 35 | ≤ 35 | > 35
49 |  |  | CCCCNC(=O)[C@H](CCC(=O)O)NC(=O)Cc1ccc(-c2ccccc2)cc1 | < 35 | > 35 | < 35
50 |  |  | CCCNC(=O)[C@H](CCC(=O)O)NC(=O)Cc1ccc(-c2ccccc2)cc1 | < 35 | > 35 | < 35
51 |  |  | CC(C)NC(=O)[C@H](CCC(=O)O)NC(=O)Cc1ccccc1 | ≤ 35 | > 35 | ≤ 35
52 | > 10 | ≤ 10 | CCCCCCNC(=O)[C@H](CCC(=O)O)NC(=O)Cc1ccc(Cl)cc1 | ≤ 35 | ≤ 35 | ≤ 35
53 |  |  | CCCCCNC(=O)[C@H](CCC(=O)O)NC(=O)Cc1ccc(Br)cc1 | ≤ 35 | > 35 | ≤ 35
54 |  |  | COc1ccc(CC(=O)N[C@@H](CCC(=O)O)C(=O)NC(C)(C)C)cc1 | > 35 | > 35 | > 35
55 |  |  | CCCCCNC(=O)[C@H](CCC(=O)O)NC(=O)Cc1ccccc1F | < 35 | > 35 | < 35
56 |  |  | CCCCNC(=O)[C@H](CCC(=O)O)NC(=O)Cc1ccc([N+](=O)[O-])cc1 | < 35 | > 35 | < 35
57 |  |  | CC(C)NC(=O)[C@H](CCC(=O)O)NC(=O)Cc1ccc(-c2ccccc2)cc1 | < 35 | > 35 | > 35
58 |  |  | O=C(O)CC[C@H](NC(=O)Cc1ccccc1)C(=O)NCc1ccccc1 | > 35 | > 35 | > 35
59 |  |  | CCCCCNC(=O)[C@H](CCC(=O)O)NC(=O)Cc1ccccc1Br | > 35 | > 35 | < 35
60 |  |  | CC(C)CNC(=O)[C@H](CCC(=O)O)NC(=O)Cc1ccc(-c2ccccc2)cc1 | > 35 | > 35 | > 35
61 |  |  | O=C(O)CC[C@H](NC(=O)Cc1ccc([N+](=O)[O-])cc1)C(=O)NCc1ccccc1 | < 35 | > 35 | < 35
62 |  |  | CCCCNC(=O)[C@H](CCC(=O)O)NC(=O)Cc1ccccc1Cl | ≤ 35 | > 35 | ≤ 35
